The values below come from patent publication US8716325B2, “Treatment of cachexia” (PsiOxus Therapeutics Limited, priority 2006, dated 2014).

For data set [1] the following is noted: cited from earlier work.
The target of a further data set is T1, 5-HT1a (Rattus norvegicus, UniProt P19327).
T1 construct: suppressant effects of 5-HT1a agonists on dorsal raphe neuronal firing; host or cells: dorsal raphe neurons (endogenous receptor)
T1 sequence (P19327 1-422): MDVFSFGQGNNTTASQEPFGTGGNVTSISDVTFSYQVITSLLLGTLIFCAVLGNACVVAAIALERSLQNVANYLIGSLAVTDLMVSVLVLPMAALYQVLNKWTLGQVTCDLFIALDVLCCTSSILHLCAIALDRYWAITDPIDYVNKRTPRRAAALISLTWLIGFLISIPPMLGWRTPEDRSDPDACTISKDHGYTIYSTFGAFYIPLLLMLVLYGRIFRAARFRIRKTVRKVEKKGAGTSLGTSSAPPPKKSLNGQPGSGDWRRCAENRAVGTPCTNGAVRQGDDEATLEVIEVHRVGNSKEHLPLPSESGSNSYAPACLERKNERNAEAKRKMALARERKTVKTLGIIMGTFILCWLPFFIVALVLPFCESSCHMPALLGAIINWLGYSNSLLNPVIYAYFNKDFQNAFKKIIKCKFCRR
The conditions noted are these: functional tests, Eur J Pharmacol. 1986; 128 (3): 295-8; cited from earlier work.

Data set [2] relates to Ascites hepatoma Yoshida AH-130 cells. Briefly: Yoshida AH-130 ascites hepatoma rat model of cancer cachexia. The data set is classed as in vivo, male Wistar rats. The note with it: for Locomotor activity 24 h day 11: Supermex system, marker for fatigue; for Locomotor activity 24 h day 11 / Food intake day 11 / Lean tissue gain without tumour / Lean tissue without tumour / Weight gain without tumour / Body weight without tumour: mean±SEM; for Lean tissue gain without tumour / Lean tissue without tumour / Weight gain without tumour / Body weight without tumour: end of study; for Body weight without tumour: oral gavage, twice daily. The source says: Ascites hepatoma Yoshida AH-130 cells (10^8 cells) are inoculated into 180-200 g male Wistar rats. Alternatively animals receive saline injection only (sham). The animals are housed in groups of three. The day after inoculation animals are randomized into various groups and then receive twice daily treatment with either placebo or compounds over a period of up to 17 days. The primary endpoints of the study include assessment of body weight, body composition (with and without tumour) and survival. Organ weight is assessed at the end of the study (or after death) as a secondary endpoint. In addition locomotor activity is used to assess fatigue using Supermex system (Muromachi, Tokyo, Japan) over a period of 24 hours in cages where the animals are placed individually (type 3 cage); missing data (if due to death) are imputed as ‘zero’ activity; a sensitivity analysis without imputed points is additionally performed. Food intake is also measured. Results are expressed as mean±SEM at the end of the study except where stated otherwise. Doses represent total daily dose given by oral gavage.

The mark [3] stands for this setting: animal model of cancer cachexia, summary in words.

Where two headings read alike, the source gives them in different places.

Turning to `CC(C)NCC(O)COc1cccc2[nH]ccc12` (racemic) [racemic pindolol, pindolol, reference compound], the “Effect on blood pressure” value in data set [1] (healthy subjects, similar dose of (S)-pindolol and racemic pindolol) is “reducing diastolic blood pressure”.

`CC(C)NC[C@@H](O)COc1cccc2ccccc12` [(R)-propranolol, reference compound]: the “Block of the suppressant effects of 5-HT1a agonists on dorsal raphe neuronal firing” value at 5-HT1a is recorded as “not”.

Take `CC(C)NC[C@H](O)COc1cccc2ccccc12` [(S)-propranolol, (S)-1-isopropylamino-3-(1-naphthyloxy)-2-propanol]: the “Block of the suppressant effects of 5-HT1a agonists on dorsal raphe neuronal firing” value at 5-HT1a was “blocked the suppressant effects”.

For `CC(C)NCC(O)COc1ccc(COCCOC(C)C)cc1` (centres unmarked) [Bisoprolol, reference compound], in data set [2] (5 mg/kg/d oral gavage), the “Locomotor activity 24 h day 11” value was 315 ± 58, the “Food intake day 11” value is reported as 16.00 ± 3.07 g, the “Lean tissue gain without tumour” value was -1.38 ± 11.31 g and the “Lean tissue without tumour” value came to 158.10 ± 11.86 g. Further, in data set [2] (5 mg/kg/d oral gavage), the “Weight gain without tumour” value was -5.46 ± 15.95 g. For the same molecule, the “Body weight without tumour” value in data set [2] (5 mg/kg/d total daily dose) is 202.0 ± 16.04 g. Besides, in data set [2] (50 mg/kg/d oral gavage), the “Locomotor activity 24 h day 11” value amounted to 277 ± 39, the “Food intake day 11” value came out at 9.94 ± 2.10 g, the “Lean tissue gain without tumour” value is -28.96 ± 6.64 g and the “Lean tissue without tumour” value was 124.77 ± 7.17 g. Also, in data set [2] (50 mg/kg/d oral gavage), the “Weight gain without tumour” value is -30.30 ± 10.95 g. The “Body weight without tumour” value in data set [2] (50 mg/kg/d total daily dose) is on record as 159.18 ± 9.64 g. For the same molecule, in data set [2] (setting [3]), the “Effect on locomotor activity, as a marker for fatigue” value is recorded as “neutral to negative”.

Take `CC(C)NC[C@H](O)COc1cccc2[nH]ccc12` [S-pindolol, S-(−)-1-(1H-indol-4-yloxy)-3-(1-methylethylamino)propan-2-ol]: the “Effect on blood pressure” value in data set [1] (in vivo) was “no alteration in blood pressure in a majority of healthy subjects”. Besides, in data set [2] (0.3 mg/kg/d oral gavage), the “Locomotor activity 24 h day 11” value stood at 361 ± 38, the “Food intake day 11” value turned out to be 7.75 ± 5.22 g, the “Lean tissue gain without tumour” value was -1.17 ± 15.84 g and the “Lean tissue without tumour” value was 152.37 ± 15.47 g. In addition, in data set [2] (0.3 mg/kg/d oral gavage), the “Weight gain without tumour” value is -8.50 ± 19.19 g. The “Body weight without tumour” value in data set [2] (0.3 mg/kg/d total daily dose) worked out at 178.89 ± 17.04 g. For the same molecule, in data set [2] (3 mg/kg/d oral gavage), the “Locomotor activity 24 h day 11” value turned out to be 368 ± 50, the “Food intake day 11” value is 15.33 ± 3.84 g, the “Lean tissue gain without tumour” value is 18.90 ± 16.06 g and the “Lean tissue without tumour” value turned out to be 171.99 ± 15.92 g. The “Weight gain without tumour” value in data set [2] (3 mg/kg/d oral gavage) was 17.30 ± 20.08 g. Besides, the “Body weight without tumour” value in data set [2] (3 mg/kg/d total daily dose) turned out to be 215.10 ± 19.89 g. In data set [2] (setting [3]), the “Effect on cachectic weight loss” value is reported as “able to reduce cachectic weight loss”; the “Effect on locomotor activity, as a marker for fatigue” value was “positive effect on locomotor activity”; the “Effect on tumour weight” value is recorded as “reducing the tumour weight”.
